Data on 27 compounds can be found in patent US7829560B2, “1,4-disubstituted naphthalenes as inhibitors of P38 MAP kinase” (Arqule, Inc., priority 2004, dated 2010).

Values joined by “and” are separate entries in the source; they are usually repeats but may differ in a detail not shown here. Identical values can stand only once.

The target in data set [1] is T1, p38α (Homo sapiens, UniProt Q16539).
T1 construct: p38 MAP Kinases are recombinant human full-length proteins with an amino-terminal GST fusion; GST (N); purchased Upstate Biotechnology Inc; host or cells: E. coli
In words: p38 MAP Kinase assay: inhibition of ATF2 phosphorylation, ELISA. The settings on record: for IC50: ATF2 phosphorylation, read-out: [ENZ] P38 ALPHA, IC50, ELISA; for inhibition at 10 µM: substrate ATF2, read-out: [ENZ] P38 ALPHA, PCT INH, ELISA (10 uM;ATF2) (Percent). The class given is biochemical. The method, boiled down: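 GST-tagged full-length human p38 MAP kinase with GST-ATF2 (aa 19–96; 1.25 μM) and 40 μM ATP in HEPES pH 7.5 buffer, without (Method I) or with (Method II) 1% human serum albumin. Compound pre-incubated 15 min at room temperature; reaction 30 min at 37 °C; ATF2 Thr69 phosphorylation measured by ELISA (A450).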
For orientation: In an ELISA, binding on a coated surface is turned into a signal by an enzyme label.

For data set [2], the system named is TNFα release from THP-1 cells. In words: Inhibition of TNFα release from LPS-stimulated THP-1 cells, ELISA. Format: cell-based. The note with it: Homo sapiens, THP-1, THP-1 cells, read-out: [CELL] THP-1, IC50, TNF ALPHA, ELISA. In a few lines:
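Human THP-1 monocytes, 10^6 cells/ml in RPMI with 10% FBS, no serum or 1% HSA, preincubated 30 min at 37 °C with compound (≤0.5% DMSO), then stimulated with 10 μg/ml LPS for 18 h. Supernatant TNFα measured by ELISA; IC50 from non-linear dose-response regression.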

T1 sequence (Q16539 whole entry, the tested form may be a part): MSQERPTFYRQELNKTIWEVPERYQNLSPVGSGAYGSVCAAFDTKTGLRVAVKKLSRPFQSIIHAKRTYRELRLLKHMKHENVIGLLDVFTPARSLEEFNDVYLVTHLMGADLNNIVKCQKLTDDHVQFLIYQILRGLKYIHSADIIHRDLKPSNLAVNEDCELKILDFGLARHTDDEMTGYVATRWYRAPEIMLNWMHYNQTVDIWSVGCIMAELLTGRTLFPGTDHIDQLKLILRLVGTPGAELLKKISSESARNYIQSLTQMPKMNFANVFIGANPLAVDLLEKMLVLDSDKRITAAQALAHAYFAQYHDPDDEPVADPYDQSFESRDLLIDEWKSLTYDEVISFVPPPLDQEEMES

Consider `N#Cc1ccc(C(=O)Nc2ccc(OCCN3CCOCC3)c3ccccc23)cc1` [Compound B36, 4-Cyano-N-[4-(2-morpholin-4-ylethoxy)-1-naphthyl]benzamide], for which the melting point was 213 to 214 °C. For the same compound, the IC50 in data set [1] was determined as 5090 nM. In addition, the IC50 in data set [2] worked out at 6620 nM.
For the compound `O=C(Nc1ccc(OCCN2CCOCC2)c2ccccc12)c1cccc(N2CCCCC2)c1` [Compound B48, N-[4-(2-Morpholin-4-yl-ethoxy)-naphthalen-1-yl]-3-piperidin-1-yl-benzamide], the melting point fell in the range of 147 to 148 °C. The IC50 in data set [1] is 464 nM. Besides, in data set [2], the half-inhibitory concentration (IC50) came to 7650 nM.
`O=C(Nc1ccc(OCCN2CCOCC2)c2ccccc12)c1ccc2snnc2c1` [Compound B50, N-[4-(2-Morpholin-4-ylethoxy)-1-naphthyl]-1,2,3-benzothiadiazole-5-carboxamide] yielded a melting point of 188 to 190 °C. Besides, in data set [1], the IC50 turned out to be 1240 nM. In addition, in data set [2], the IC50 came out at 9180 nM.
The matching figures for `O=C(Nc1ccc(OCCN2CCOCC2)c2ccccc12)c1cc(N2CCOCC2)ncn1` [Compound B54, 6-Morpholin-4-yl-pyrimidine-4-carboxylic acid [4-(2-morpholin-4-yl-ethoxy)-naphthalen-1-yl]-amide]: 50 to 51 °C, greater than 10000 nM and greater than 10000 nM.
The matching figures for `O=C(Nc1ccc(OCCN2CCOCC2)c2ccccc12)c1cccc(-n2cccc2)c1` [Compound B57, N-[4-(2-Morpholin-4-yl-ethoxy)-naphthalen-1-yl]-3-pyrrol-1-yl-benzamide]: 142 to 143 °C, 1190 nM and 2650 nM.
As for `O=C(Nc1ccc(OCCN2CCOCC2)c2ccccc12)c1cccc(-c2cccnc2)c1` [Compound B58, N-[4-(2-Morpholin-4-yl-ethoxy)-naphthalen-1-yl]-3-pyridin-3-yl-benzamide], the melting point was in the range of 77 to 78 °C. In addition, the IC50 in data set [1] was 8810 nM. Also, in data set [2], the IC50 is greater than 10000 nM.
The matching figures for `COc1cccc(C(=O)Nc2ccc(OCCN3CCOCC3)c3ccccc23)c1` [Compound B60, 3-Methoxy-N-[4-(2-morpholin-4-ylethoxy)-1-naphthyl]benzamide]: 105 to 107 °C, 7810 nM and greater than 10000 nM.
`CC(C)(C)Oc1cccc(C(=O)Nc2ccc(OCCN3CCOCC3)c3ccccc23)c1` [Compound B65, 3-tert-Butoxy-N-[4-(2-morpholin-4-yl-ethoxy)-naphthalen-1-yl]-benzamide] had a melting point of 50 to 51 °C. The IC50 in data set [1] worked out at 614 nM. Moreover, the IC50 in data set [2] came out at 3420 nM.
`O=C(Nc1ccc(OCCN2CCOCC2)c2ccccc12)c1cc(F)cc(N2CCCCC2)c1` [Compound B66, 3-Fluoro-N-[4-(2-morpholin-4-ylethoxy)-1-naphthyl]-5-piperidin-1-ylbenzamide] registered a melting point of 150 to 151 °C. Further, the IC50 in data set [1] came out at 112 nM. Moreover, the IC50 in data set [2] came out at 6050 nM.
`O=C(Nc1ccc(OCCN2CCOCC2)c2ccccc12)c1cc(F)cc(N2CCCCCC2)c1` [Compound B67, 3-Azepan-1-yl-5-fluoro-N-[4-(2-morpholin-4-ylethoxy)-1-naphthyl]benzamide] registered a melting point of 142 to 144 °C. Also, in data set [1], the inhibition at 10 µM amounted to 85% and the half-maximal inhibitory concentration (IC50) came to 620 nM. Further, in data set [2], the half-inhibitory concentration (IC50) was found to be 9080 nM.
`O=C(Nc1ccc(OCCCN2CCOCC2)c2ccccc12)c1cc(F)cc(N2CCCCC2)c1` [Compound B161, 3-Fluoro-N-[4-(3-morpholin-4-yl-propoxy)-naphthalen-1-yl]-5-piperidin-1-yl-benzamide] showed a melting point of 70 to 72 °C. In data set [1], the inhibition at 10 µM was 84% and the IC50 was determined as 1100 nM. In addition, the IC50 in data set [2] was greater than 10000 nM.
In turn, `CC(=O)N1CCN(CCCOc2ccc(NC(=O)c3cc(F)cc(N4CCCCC4)c3)c3ccccc23)CC1` [Compound B165, N-{4-[3-(4-Acetyl-piperazin-1-yl)-propoxy]-naphthalen-1-yl}-3-fluoro-5-piperidin-1-yl-benzamide] showed a melting point of 210 to 211 °C. Further, in data set [1], the inhibition at 10 µM is 84% and the IC50 worked out at 997 nM. In addition, in data set [2], the concentration for half-maximal inhibition (IC50) was greater than 10000 nM.
On to `O=C(Nc1ccc(OCCCN2CCC3(CC2)OCCO3)c2ccccc12)c1cc(F)cc(N2CCCCC2)c1` [Compound B166, N-{4-[3-(1,4-Dioxa-8-aza-spiro[4.5]dec-8-yl)-propoxy]-naphthalen-1-yl}-3-fluoro-5-piperidin-1-yl-benzamide], for which the melting point fell in the range of 70 to 72 °C. For the same compound, the IC50 in data set [1] was 4810 nM.
`O=C(Nc1ccc(OCc2ccoc2)c2ccccc12)c1cc(F)cc(N2CCCCC2)c1` [Compound B180, 3-Fluoro-N-[4-(3-furylmethoxy)-1-naphthyl]-5-piperidin-1-ylbenzamide] yielded a melting point of 152 to 153 °C. Further, the concentration for half-maximal inhibition (IC50) in data set [1] came to 4040 nM.
Turning to `O=C(Nc1ccc(OCCN2CCCC2=O)c2ccccc12)c1cc(F)cc(N2CCCCC2)c1` [Compound B181, 3-Fluoro-N-{4-[2-(2-oxopyrrolidin-1-yl)ethoxy]-1-naphthyl}-5-piperidin-1-ylbenzamide], the melting point lay within 161 to 162 °C. Also, the IC50 in data set [1] was found to be 2350 nM.
Compound `O=C(Nc1ccc(OCc2ccncc2)c2ccccc12)c1cc(F)cc(N2CCOCC2)c1` [Compound B191, 3-Fluoro-5-morpholin-4-yl-N-[4-(pyridin-4-ylmethoxy)-1-naphthyl]benzamide] displayed a melting point of 157 to 159 °C. Further, the IC50 in data set [1] was 52.7 nM and 61 nM.
As to `O=C(Nc1ccc(OCCN2CCCC2=O)c2ccccc12)c1cc(F)cc(N2CCOCC2)c1` [Compound B224, 3-Fluoro-5-morpholin-4-yl-N-{4-[2-(2-oxopyrrolidin-1-yl)ethoxy]-1-naphthyl}benzamide], the melting point was 172 to 173 °C. For the same compound, the half-inhibitory concentration (IC50) in data set [1] turned out to be 6550 nM.
`O=C(Nc1ccc(OCCN2CCOCC2)c2ccccc12)c1cc(F)cc(OC2CCOCC2)c1` [Compound B226, 3-Fluoro-N-[4-(2-morpholin-4-ylethoxy)-1-naphthyl]-5-(tetrahydro-2H-pyran-4-yloxy)benzamide] yielded a melting point of 75 to 77 °C. Moreover, in data set [1], the half-inhibitory concentration (IC50) stood at 5390 nM.
In turn, `CCC1CCC(Oc2cc(F)cc(C(=O)Nc3ccc(OCc4ccncc4)c4ccccc34)c2)CC1` (stereo not drawn) [Compound B228, 3-[(4-Ethylcyclohexyl)oxy]-5-fluoro-N-[4-(pyridin-4-ylmethoxy)-1-naphthyl]benzamide] displayed a melting point of 93 to 95 °C. In addition, the IC50 in data set [1] was greater than 10000 nM.
Take `O=C(Nc1ccc(Oc2ccnc(N3CCCC3)n2)c2ccccc12)c1cc(F)cc(N2CCCCC2)c1` [Compound B377, 3-Fluoro-piperidin-1-yl-N-{4-[(2-pyrrolidin-1-ylpyrimidin-4-yl)oxy]-1-naphthyl}benzamide]: the melting point lay within 111 to 113 °C. Moreover, the IC50 in data set [2] stood at 515 nM.
With `CCOC(=O)N1CCC(Nc2nccc(Oc3ccc(NC(=O)c4cc(F)cc(N5CCCCC5)c4)c4ccccc34)n2)CC1` [Compound B401, Ethyl-4-{[4-({4-[(3-fluoro-5-piperidin-1-ylbenzoyl)amino]-1-naphthyl}oxy)pyrimidin-2-yl]amino}piperidine-1-carboxylate], the results for the half-maximal inhibitory concentration (IC50) in data set [1] and in data set [2] were 25.6 nM and 1100 nM, respectively.
`O=C(Nc1ccc(Oc2ccnc(NC3CCS(=O)(=O)C3)n2)c2ccccc12)c1cc(F)cc(N2CCCCC2)c1` (stereo not drawn) [Compound B406]: the half-inhibitory concentration (IC50) was found to be 19.6 nM in data set [1] and 117 nM in data set [2].
Regarding `CN1CCC(Nc2nccc(Oc3ccc(NC(=O)c4cc(F)cc(N5CCCCC5)c4)c4ccccc34)n2)CC1` [Compound B409, 3-Fluoro-N-[4-({2-[(1-methylpiperidin-4-yl)amino]pyrimidin-4-yl}oxy)-1-naphthyl]-5-piperidin-1-ylbenzamide], the IC50 in data set [1] was found to be 1.8 nM; in data set [2], 68.7 nM.
In the case of `CN(C(=N)N)c1nccc(Oc2ccc(NC(=O)c3cc(F)cc(N4CCCCC4)c3)c3ccccc23)n1` [Compound B413], the half-maximal inhibitory concentration (IC50) was 36.3 nM in data set [1] and greater than 1000 nM in data set [2].
On to `O=C(Nc1ccc(Oc2ccnc(N3CCC(CO)CC3)n2)c2ccccc12)c1cc(F)cc(N2CCCCC2)c1` [Compound B415, 3-Fluoro-N-[4-({2-[4-(hydroxymethyl)piperidin-1-yl]pyrimidin-4-yl}oxy)-1-naphthyl]-5-piperidin-1-ylbenzamide], for which the concentration for half-maximal inhibition (IC50) in data set [1] worked out at 6.1 nM; in data set [2] it was 162 nM.
The matching figures for `CC1=NCCN1c1nccc(Oc2ccc(NC(=O)c3cc(F)cc(N4CCCCC4)c3)c3ccccc23)n1` [Compound B417, 3-Fluoro-N-(4-{[2-(2-methyl-4,5-dihydro-1 H-imidazol-1-yl)pyrimidin-4-yl]oxy}-1-naphthyl)-5-piperidin-1-ylbenzamide]: 12.7 nM and 336 nM.
Consider `CCN1CCC[C@H]1CNc1nccc(Oc2ccc(NC(=O)c3cc(F)cc(N4CCCCC4)c3)c3ccccc23)n1` [Compound B419, N-(4-{[2-({[(2S)-1-Ethylpyrrolidin-2-yl]methyl}amino)pyrimidin-4-yl]oxy}-1-naphthyl)-3-fluoro-5-piperidin-1-ylbenzamide], for which the results for the IC50 in data set [1] and in data set [2] were 3 nM and 55.4 nM, respectively.

As usually defined, the IC50 is the concentration that gives 50% inhibition. As a reminder, the melting point is the temperature of the solid-liquid transition.
